Test results: patent US8709440B2, “Agent for expelling parasites in humans, animals or birds” (Momentum Animal Cure BVBA, priority 2009, dated 2014)

These compounds were tested on helminths that were resistant to ivermectine, pyrantel, praziquantel and moxidectine (assay: Treatment of Horse 4 severely infected with resistant parasites). Conditions: Horse 4 severely infected with parasites.
Assay type: in vivo
Procedure: Horse 4 was treated with 38 g Asafoetida powder with Arabic gum mixed in milk and with cereal.
`CO/N=C1\C[C@]2(C[C@@H]3C[C@@H](C/C=C(\C)C[C@@H](C)/C=C/C=C4\CO[C@@H]5[C@H](O)C(C)=C[C@@H](C(=O)O3)[C@]45O)O2)O[C@H](/C(C)=C/C(C)C)[C@H]1C` [moxidectine] was tested, and the “result of several treatments” value was “had no result”.
With `O=C(C1CCCCC1)N1CC(=O)N2CCc3ccccc3C2C1` (stereo not shown) [praziquantel] the “result of several treatments” value was “had no result”.
In the case of `CN1CCCN=C1/C=C/c1cccs1` [pyrantel], the “result of several treatments” value was “had no result”.
In the case of ivermectine, the “result of several treatments” value was “had no result”.
